# Laboratory results published in PMC8025909, “Repurposing of Sitagliptin- Melittin Optimized Nanoformula against SARS-CoV-2; Antiviral Screening and Molecular Docking Studies” (Pharmaceutics, 2021).
# Target: T1, SARS-CoV-2 3CL Protease (3C-like protease, Mpro, 3CLpro) (Severe acute respiratory syndrome coronavirus 2, UniProt P0DTD1)
# T1 construct: gene rep; full-length mature nsp5 a.a; supplier apparently BPS Bioscience
# Test: biochemical
smiles,measurement,value
N[C@@H](CC(=O)N1CCn2c(nnc2C(F)(F)F)C1)Cc1cc(F)c(F)cc1F [sitagliptin],IC50,6.914 ± 0.034 µM
